Among the data in PubChem BioAssay AID1645866 (Buhrlage Lab, Dana-Farber Cancer Institute and Novartis …, 2021) are IC50 values, retold here.

Structures are written as SMILES. pIC50: −log10 of the molar value. Calls of active or inactive are those of the source.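 How the source made its calls: active means in confirmatory dose-response testing, peak deubiquitinase inhibition of 30% or more; inactive means the rest.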

In the assay the target is Ubiquitin carboxyl-terminal hydrolase 28 (Homo sapiens) (UniProt Q96RU2). Kind of assay: Ubiquitin-specific peptidase 28 DUB inhibitors, biochemical concentration-dependence assay, validation of primary screening hits (AID 1645866). As to conditions: purified USP28, ubiquitin-rhodamine fluorescence, 30 min.
Ubiquitin carboxyl-terminal hydrolase 28 (Homo sapiens), sequence (Q96RU2 whole entry, looked up): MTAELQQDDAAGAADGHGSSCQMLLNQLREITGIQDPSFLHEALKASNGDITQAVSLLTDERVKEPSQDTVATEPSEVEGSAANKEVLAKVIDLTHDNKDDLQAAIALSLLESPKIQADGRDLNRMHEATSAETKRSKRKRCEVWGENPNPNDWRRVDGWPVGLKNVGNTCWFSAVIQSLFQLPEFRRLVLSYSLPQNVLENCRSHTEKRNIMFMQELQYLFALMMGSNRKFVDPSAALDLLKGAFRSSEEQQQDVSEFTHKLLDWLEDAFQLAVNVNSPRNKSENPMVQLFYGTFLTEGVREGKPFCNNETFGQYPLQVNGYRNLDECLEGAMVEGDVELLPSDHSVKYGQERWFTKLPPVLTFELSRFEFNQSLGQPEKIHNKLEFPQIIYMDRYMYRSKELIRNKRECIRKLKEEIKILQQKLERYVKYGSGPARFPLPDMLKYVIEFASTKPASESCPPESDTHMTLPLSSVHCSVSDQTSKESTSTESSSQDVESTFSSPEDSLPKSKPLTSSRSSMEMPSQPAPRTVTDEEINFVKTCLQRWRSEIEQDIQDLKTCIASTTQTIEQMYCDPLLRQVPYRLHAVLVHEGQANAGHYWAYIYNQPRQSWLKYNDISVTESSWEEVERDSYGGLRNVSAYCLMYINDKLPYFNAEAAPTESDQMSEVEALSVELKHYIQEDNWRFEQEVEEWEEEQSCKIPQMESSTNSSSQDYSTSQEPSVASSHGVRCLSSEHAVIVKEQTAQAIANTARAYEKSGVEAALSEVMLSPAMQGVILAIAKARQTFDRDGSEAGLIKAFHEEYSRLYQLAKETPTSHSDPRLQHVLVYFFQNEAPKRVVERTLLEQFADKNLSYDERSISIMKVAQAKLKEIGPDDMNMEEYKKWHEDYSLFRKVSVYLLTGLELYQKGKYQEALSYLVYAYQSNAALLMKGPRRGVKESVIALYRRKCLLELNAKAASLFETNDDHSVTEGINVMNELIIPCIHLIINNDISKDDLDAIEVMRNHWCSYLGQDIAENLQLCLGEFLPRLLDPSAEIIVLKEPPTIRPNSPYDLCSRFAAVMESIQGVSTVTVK
By IC50 is commonly meant the point on the concentration scale where inhibition reaches its midpoint. For the molecule `CC1CCN(c2nc(F)c3c(c2F)S(=O)(=O)CCN3Cc2cccnc2)CC1`, the IC50 is > 50 µM (inactive).
Regarding `COc1cccc(-c2nc(C(N)=O)c3[nH]c(=O)n(-c4cccc(Cl)c4)c3n2)c1OC`, the IC50 is > 50 µM (inactive).
Regarding `CC(C)(C)N=C1Nc2ncccc2NC12CCCN(C(=O)c1ccccc1)C2` (stereo not drawn), the IC50 was > 50 µM (inactive).
Same read-out and setting: in the case of `CC(C)(C)c1cc(C[C@@H]2C[C@H](NC(=O)N3CCOCC3)C2(C)C)no1` it was > 50 µM (inactive); in that of `O=S(c1ccc2ccccc2c1)c1cnns1` (stereo not drawn), > 50 µM (inactive).
Usually pIC50 stands for the IC50 on a negative log10 scale, so that one unit is a factor of ten. Regarding `CCc1ccc(NC(=O)COC(=O)c2n[nH]c3ccccc23)cc1`, the pIC50 was 4.92.
Regarding `CCc1ccc(OCc2nnc(SCC(=O)Nc3ccccc3OC)n2Cc2ccccc2)cc1`, the IC50 was > 50 µM (inactive).
On to `COc1ccc(NC(=O)C2CC(=O)Nc3c(-c4ccc(Cl)cc4)cnn32)c(OC)c1` (stereo not drawn), for which the pIC50 is 4.84.
Regarding `NC(=O)c1ccc(NC(=O)Cc2cc(-c3ccc(Cl)cc3)on2)cc1`, the IC50 was > 50 µM (inactive).
Regarding `O=C1CC(c2cc3c(cc2Br)OCO3)c2cc3c(cc2N1)OCCO3` (stereo not drawn), the pIC50 was 4.83.
On the same count and under the same terms, in the case of `O=[N+]([O-])c1ccccc1C(c1c[nH]c2ccccc12)c1c[nH]c2ccccc12` it was 4.62.
On the same count and under the same terms, in the case of `CCOc1ccc(-c2ccc3nnc(SCC(=O)Nc4cccc(C(C)=O)c4)n3n2)cc1` it was 5.78; in that of `O=C(COC(=O)c1cc2c(s1)CCC2)c1ccc2[nH]c(=O)[nH]c2c1`, 5.19.
As for `Cn1ncc2c(=O)n(Cc3cccc(Cl)c3)cnc21`, the pIC50 is 4.89.
On the same count and under the same terms, in the case of `CCOC(=O)N1CCN(S(=O)(=O)c2ccc(C(=O)Nc3ccc(Br)cc3)cc2)CC1` it was 4.74.
Same read-out and setting: in the case of `CCOc1ccccc1C(=O)Oc1ccc2c(C)cc(=O)oc2c1` it was 4.64.
On to `Cc1noc(C)c1CN1CC[C@H]2O[C@H](C(=O)NCc3ccco3)CC[C@H]21`, for which the IC50 was > 50 µM (inactive).
As for `CCn1ccc2c(cc(C(=O)Nc3cc(F)ccc3F)n2C)c1=O`, the negative logarithm of the IC50 (pIC50) is 5.65.
For `COc1c(O)c(O)c2c(=O)cc(-c3ccc(O)cc3)oc2c1OC`, the pIC50 was 4.57.
For `Cc1cc(Cl)ccc1Nc1nc(Nc2cccc(F)c2)nc2nccnc12`, the IC50 is > 50 µM (inactive).
For the molecule `O=C(NCc1ccc2c(c1)OCO2)c1nc(-c2ccccc2)n(-c2ccccc2)n1`, the IC50 is > 50 µM (inactive).
As to `Cc1noc(-c2ccc(N3CCCC(C(=O)NCc4ccc(F)cc4)C3)nc2)n1` (stereo not drawn), the negative logarithm of the IC50 (pIC50) was 4.69.
The same measure, in the same setting: in the case of `CO[C@H]1CC[C@H](O)c2c1oc1c3c4c(c(O)c1c2=O)-c1c(cc2c(Cl)c(C)n(N)c(=O)c2c1O)C[C@@H]4OCO3` it was 4.69; in that of `c1ccc(-c2nc(-c3nnn(-c4ccccc4)c3-c3ccncc3)no2)cc1`, 4.90.
The same measure, in the same setting: in the case of `CC1(C)OC2=C(C(=O)c3cc(O)cc(O)c3C2=O)c2cc(CO)c(O)cc21` it was 4.73.
Still for that read-out and setting: in the case of `COc1ccc(CNc2nn3c(-c4cncc(OC)c4)cnc3s2)cc1` it was 5.58.
Regarding `CCCNC(=O)c1ccn(-c2ccc3ccc(-c4cnn(C)c4)cn23)n1`, the IC50 was > 50 µM (inactive).
As to `CN(c1ccccc1)c1nc(=O)n(CC(=O)Nc2ccc3c(c2)OCCO3)c2ccccc12`, the pIC50 is 4.55.
Turning to `CC(C)(C)c1ccc(C(=O)Nc2ccc(Cn3cncn3)cc2)cc1`, the pIC50 is 4.55.
Turning to `O=C(Nc1ccc(F)cc1)Nc1ccccc1OCc1cc(=O)n2ccccc2n1`, the pIC50 is 5.03.
Take `O=[N+]([O-])c1ccc(N2CCN(c3ncnc4c3[nH]c3ccc(F)cc34)CC2)cc1`: the pIC50 is 6.65.
The same measure, in the same setting: in the case of `COc1ccc(-c2[nH]c3ccccc3c2SCCNC(=O)c2ccc(S(=O)(=O)N3CCOCC3)cc2)cc1` it was 4.52; in that of `CCCC(O)CCCCCCCc1cc(O)cc(O)c1C(=O)OC(CCC)CCCCCCCc1cc(O)cc(O)c1` (stereo not drawn), 4.60.
`COc1ccc(-c2ccnc(-c3ccc(OCc4cccc(F)c4)cc3)n2)cc1`: the IC50 was > 50 µM (inactive).
On to `CN(C)Cc1ccc(C(=O)Nc2ccc(-c3nccs3)cc2)cc1`, for which the negative logarithm of the IC50 (pIC50) was 5.96.
Still for that read-out and setting: in the case of `Cc1cc(C)c2cc3c(nc2c1)OC(=O)N(Cc1ccco1)C3` it was 5.01.
Take `COCCCNC(=O)Cn1c(=O)n(Cc2ccc(C(=O)NCc3ccccc3OC)cc2)c(=O)c2ccccc21`: the IC50 was > 50 µM (inactive).
`O=C(Cc1nnc2c(-c3nc(C4CC4)no3)cccn12)Nc1ccccc1`: the pIC50 was 4.78.
Consider `O=C(COc1nc2ccccc2nc1N1CCOCC1)Nc1cccc(S(=O)(=O)N2CCCCC2)c1`, for which the IC50 was > 50 µM (inactive).
The same measure, in the same setting: in the case of `Cc1ccc(Nc2nc(Nc3cccc(F)c3)nc3nccnc23)c(C)c1` it was > 50 µM (inactive); in that of `Cn1c(=O)c2c(ncn2CC(=O)NC2CCCc3ccccc32)n(C)c1=O` (stereo not drawn), > 50 µM (inactive); in that of `C[C@@]12c3ccc4c(c3C(=O)c3occ(c31)C(O)C[C@H]2O)CCC4=O` (stereo partly drawn), > 50 µM (inactive).
`O=C(Cc1cccc2ccccc12)Nc1nc2ccc(F)cc2s1`: the pIC50 was 4.43.
Regarding `CCC[C@H]1O[C@@H]2CC(=O)O[C@@H]2C2=C1C(=O)c1c(O)cccc1C2=O`, the pIC50 was 4.84.
For `CCn1cnc2c(-c3ccccc3)cn(CC(=O)NCc3ccc4c(c3)OCO4)c2c1=O`, the pIC50 is 4.98.
In the case of `O=C(Nc1cc(Cl)ccc1-n1cncn1)c1ccc(S(=O)(=O)N2CCCC2)cc1`, the IC50 is > 50 µM (inactive).
In the case of `O=C(Nc1ccc(-c2cn3ccccc3n2)cc1)C1C=C2C=C(Br)C=CC2OC1=O` (stereo not drawn), the negative-log IC50 (pIC50) was 5.71.
On the same count and under the same terms, in the case of `O=C1c2c(O)c(Cl)cc3c2[C@@]2(Oc4cc(Cl)c(O)c5c4[C@]3(O2)[C@@H]2O[C@@H]2C5=O)[C@@H]2O[C@H]12` it was 6.31.
As to `COc1cccc(-c2cc(C(=O)Nc3cc(C)n(Cc4ccc(Cl)cc4)n3)no2)c1`, the pIC50 is 4.39.
On the same count and under the same terms, in the case of `COc1ccc(NC(=O)C2CCCN(S(=O)(=O)N3CCCCCC3)C2)cc1` (stereo not drawn) it was 4.66.
Consider `COc1ccc(NS(=O)(=O)c2ccc(NC(=O)Nc3ccc(Cl)cc3)cc2)cc1`, for which the pIC50 was 4.60.
For `Cc1c(CC(=O)N2CCN(c3ncccn3)CC2)c(=O)oc2cc(O)ccc12`, the pIC50 was 4.64.
Turning to `O=C(CSc1ncnc2c1sc1cccc(F)c12)N1CCCCCC1`, the IC50 is > 50 µM (inactive).
Consider `O=C(NC(Cc1ccccc1)c1nc2ccccc2[nH]1)C1CC1` (stereo not drawn), for which the IC50 is > 50 µM (inactive).
The same measure, in the same setting: in the case of `Cc1ccc(-c2nc(-c3cccs3)cc(C(F)(F)F)c2C#N)cc1` it was > 50 µM (inactive); in that of `Cc1cc(C(F)(F)F)n2nc(C3CCN(C(=O)c4cnn(C)c4C)C3)cc2n1` (stereo not drawn), > 50 µM (inactive).
Turning to `NC(=O)c1nnn(-c2ccc(NC(=O)c3ccc(F)c(F)c3)cc2)n1`, the negative-log IC50 (pIC50) is 4.95.
On the same count and under the same terms, in the case of `Cc1ccc([N+](=O)[O-])cc1S(=O)(=O)Nc1cc2sc(=O)oc2c2ccccc12` it was 4.87; in that of `O=C(Nc1nnc2n1CCCS2)c1cccc(Cl)c1`, 5.92; in that of `O=C(Nc1ccc2c(c1)OCO2)C1CCN(Cc2nc3ccccc3s2)CC1`, 5.62.
Turning to `CCOC(=O)[C@@H]1[C@@H](c2ccccc2)CN2CCN(C(=O)c3cnccn3)C[C@H]12`, the IC50 is > 50 µM (inactive).
As to `CC(C)CCN1C(=O)C2C(C(=O)Nc3ccc(Oc4ccccc4)cc3)C3C=CC2(O3)C1C(=O)NC1CCCCC1` (stereo not drawn), the pIC50 was 4.43.
Still for that read-out and setting: in the case of `COc1ccc(C2CC(=O)Nc3ccc4ccccc4c32)c(OC)c1OC` (stereo not drawn) it was 4.32.
